# Assay results published in publication PMC7046148 (Scientific Reports, 2020).
# Key:
# [1] = test system: Gibco hiPSCs; experiment: qRT-PCR characterization of LPM differentiation, Gibco hiPSCs in 2D; assay type: cell-based, human; conditions: 20 µM thalidomide, 2 d in APEL2+GSKi; for effect on marker gene expression during LPM differentiation (words): 2D
# Experimental: The TaqMan hPSC Scorecard Assay (Thermo Fisher) was used to assess the pluripotency of cultured Gibco hiPSCs and the XCL-1 hiPSC clones as described. The assay outputs scores for self-renewal, ectoderm, endoderm, and mesoderm genes.
# Gibco hiPSCs were seeded in small clumps at ~10% confluence on Matrigel-coated dishes and were cultured for 1 d in mTeSR-1. On the following day after seeding, the medium was switched to APEL2 basal medium (Stem Cell Technologies) supplemented with 5 µM CHIR99021 (Stem Cell Technologies) (hereafter referred to as APEL2 + GSKi). hiPSCs were cultured for the described duration in APEL2 + GSKi and were characterized by qRT-PCR and immunofluorescence. Briefly, RNA was extracted using buffer RLT supplemented with 1% β-mercaptoethanol and purified from hiPSCs using RNeasy kit (Qiagen) with optional DNase step. Reverse transcription was carried out using the high capacity cDNA reverse transcription kit (ThermoFisher). cDNA was characterized using Qubit HS dsDNA kit (Invitrogen), and qRT-PCR was carried out using TaqMan primer/probes (Thermo Fisher) and fast advanced master mix (Thermo Fisher) per manufacturer’s instructions on either the Viia7 or QuantStudio 5 (Thermo Fisher). Assay results were normalized to ACTB housekeeping control and the undifferentiated control (day 0) via the 2^−ΔΔCT method. The capacity of Gibco hiPSCs and XCL-1 hiPSCs to undergo LPM differentiation was also assessed using qRT-PCR for markers of pluripotency (NANOG, POU5F1), primitive streak (T, SOX17), LPM (FOXF1, GATA4), and limb mesenchyme (PITX1, TBX5).
# Data represent the mean ± log2 fold change, normalized to the ACTB control and the DMSO control via the 2^−ΔΔCT method, relative to DMSO control from 4 independent experiments. Asterisks denote statistical significance via 2-tailed Student’s t-test relative to a nominal mean log2 fold change of ‘0’ (α = 0.05). PS = primitive streak; LPM = lateral plate mesoderm.
# Legend for Supplementary Tables 1-3
# Supplementary tables 1-3 contain qRT-PCR data obtained using the Taqman hPSC Scorecard Assay (Thermo Fisher).Lysates of Gibco and XCL-1 hiPSCs were purified to RNA using RNeasy procedure (Qiagen). Reverse transcription was performed using the cDNA high capacity reverse transcription kit(Invitrogen). dsDNA content was calculated using Qubit dsDNA HS kit(Invitrogen). cDNA was loaded into hPSC pluripotency panel pre-loaded 384 well plates, and plates were run on Viia7 using standard curve method. The hPSC scorecard analysis software (Thermo Fisher) was used to calculate the relative gene expression scores forself-renewal genes, ectoderm genes, endoderm genes, and mesoderm genes. Scores are provided from pooled lysates from replicate wells ofa single experiment. Cells were cultured as described herein. […]
# [2] = target: T1, human SALL4 (Homo sapiens, UniProt Q9UJQ4); experiment: Immunoblot of SALL4 degradation in Lenti-x 293 CRBN-/- cells expressing human CRBN variants; assay type: cell-based; conditions: 20 µM thalidomide, 10 µM lenalidomide, 1 µM pomalidomide, 24 hours; relative to wild-type human CRBN
# T1 construct: expressed in transfected cells; host or cells: Lenti-x 293 CRBN CRISPR KO (CRBN-/-) cells stably expressing human SALL4, transiently transfected with FLAG-CRBN variants
# Excerpt: SALL4 were transiently transfected with vectors expressing GFP or human CRBN variants and treated with
# CRBN-/- cells transfected with empty vector were used as a negative control. The cells were then lysed and
# characterized by immunoblotting analysis for SALL4, ZFP91, GFP, CRBN, and β-actin.
# CRBN CRISPR KO (CRBN -/-) cells were maintained in Dulbecco’s Modified Eagle’s medium (DMEM;
# Invitrogen) supplemented with 10% fetal bovine serum (FBS; Invitrogen). All cell lines were confirmed
# mycoplasma-negative using the MycoAlert Mycoplasma Detection Kit (Lonza).
# CRBN-/- cells stably expressing human SALL4 was transiently transfected with 4 µg of pcDNA3-GFP, pcDNA3-
# FLAG-CRBN WT (isoform 1),pcDNA3-FLAG-CRBN E377V (isoform 1) or pcDNA3-FLAG-CRBN V388I (isoform
# Cells were then harvested and lysed, and
# whole cell extract was subjected to immunoblotting analysis. Cells were washed with ice-cold 1X PBS and
# lysed in 50mM Tris-HCl [pH 7.6], 150 mM NaCl, 1% Triton X-100, and 1x Complete ULTRA protease inhibitor
# cocktail and PhosSTOP phosphatase inhibitor cocktail. Whole cell extracts were collected after
# centrifugation at top speed for 10 minutes, resolved by sodium dodecyl sulfate polyacrylamide gel
# electrophoresis, transferred onto a nitrocellulose membrane using the Turboblot system (Bio-Rad), and
# probed with the indicated primary antibodies. Bound antibodies were detected with IRDye®-680 or -800 […]
# [3] = test system: XCL-1 hiPSC SALL4 Mock; experiment: cells; assay type: cell-based; conditions: Homo sapiens, 72 h; XCL-1 SALL4 Mock; 3 d differentiation; read-out: IC50 (±SEM) in SOX17 differentiation assay
# Experimental: (§1) The assay was carried out as previously described with continuous dosing of chemical for 3 total days of differentiation. SOX17 staining and DAPI counter-staining were carried out as described, and assays were imaged via high content imaging. […]
# (§2) Supplementary Figure 7. Dose-response characterization of the influence […]
# (§3) of XCL-1 clones. High content imaging analysis of XCL-1 hiPSC clones that were differentiated for 3 days in the presence of compound and subsequently stained for SOX17 and counter-stained with DAPI. Untreated DMSO control is omitted. Data represent the mean +/- SEM %SOX17 cells
# (§4) (relative to control) from 4 independent experiments. Nonlinear regression […]
# (§5) variable slope plotting tool in GraphPad Prism. A-C: Dose-response […]
# (§6) in cereblon mock (hollow circles) or CRBN KO/KI (red filled circles) clones. D- […]
# [4] = test system: XCL-1 hiPSC SALL4^G416A; experiment: cells; assay type: cell-based; conditions: Homo sapiens, 72 h; XCL-1 SALL4^G416A; 3 d differentiation; read-out: IC50 (±SEM) in SOX17 differentiation assay
# Experimental: as §1, §2, §3, §4, §5, §6
# [5] = test system: XCL-1 hiPSC CRBN KO/KI; experiment: cells; assay type: cell-based; conditions: Homo sapiens, 72 h; XCL-1 CRBN KO/KI; 3 d differentiation; read-out: IC50 (±SEM) in SOX17 differentiation assay
# Experimental: as §1, §2, §3, §4, §5, §6
# [6] = test system: XCL-1 hiPSC CRBN Mock; experiment: cells; assay type: cell-based; conditions: Homo sapiens, 72 h; XCL-1 CRBN Mock; 3 d differentiation; read-out: IC50 (±SEM) in SOX17 differentiation assay
# Experimental: as §1, §2, §3, §4, §5, §6
# [7] = target: T2, SALL4 (Homo sapiens, UniProt Q96SW2+Q9UJQ4); experiment: SALL4 MFI by high content imaging, XCL-1 SALL4 mock hiPSCs; assay type: cell-based; conditions: SALL4 mock control hiPSCs, 8 h of treatment
# T2 construct: Unmodified Gibco hiPSCs were either differentiated in APEL2 + GSKi or maintained in mTeSR1, and SALL4 nuclear protein expression was monitored; endogenous in cells; host or cells: Gibco hiPSCs; XCL-1 SALL4 mock hiPSC clone
# Excerpt: High content imaging analysis of SALL4 immunofluorescence with DAPI counterstaining in hiPSCs. […] Data represent the mean +/− SEM from 2 independent experiments.
# [8] = test system: mouse embryonic stem cells; conditions: cited from earlier work
# T2 sequence (Q9UJQ4 whole entry): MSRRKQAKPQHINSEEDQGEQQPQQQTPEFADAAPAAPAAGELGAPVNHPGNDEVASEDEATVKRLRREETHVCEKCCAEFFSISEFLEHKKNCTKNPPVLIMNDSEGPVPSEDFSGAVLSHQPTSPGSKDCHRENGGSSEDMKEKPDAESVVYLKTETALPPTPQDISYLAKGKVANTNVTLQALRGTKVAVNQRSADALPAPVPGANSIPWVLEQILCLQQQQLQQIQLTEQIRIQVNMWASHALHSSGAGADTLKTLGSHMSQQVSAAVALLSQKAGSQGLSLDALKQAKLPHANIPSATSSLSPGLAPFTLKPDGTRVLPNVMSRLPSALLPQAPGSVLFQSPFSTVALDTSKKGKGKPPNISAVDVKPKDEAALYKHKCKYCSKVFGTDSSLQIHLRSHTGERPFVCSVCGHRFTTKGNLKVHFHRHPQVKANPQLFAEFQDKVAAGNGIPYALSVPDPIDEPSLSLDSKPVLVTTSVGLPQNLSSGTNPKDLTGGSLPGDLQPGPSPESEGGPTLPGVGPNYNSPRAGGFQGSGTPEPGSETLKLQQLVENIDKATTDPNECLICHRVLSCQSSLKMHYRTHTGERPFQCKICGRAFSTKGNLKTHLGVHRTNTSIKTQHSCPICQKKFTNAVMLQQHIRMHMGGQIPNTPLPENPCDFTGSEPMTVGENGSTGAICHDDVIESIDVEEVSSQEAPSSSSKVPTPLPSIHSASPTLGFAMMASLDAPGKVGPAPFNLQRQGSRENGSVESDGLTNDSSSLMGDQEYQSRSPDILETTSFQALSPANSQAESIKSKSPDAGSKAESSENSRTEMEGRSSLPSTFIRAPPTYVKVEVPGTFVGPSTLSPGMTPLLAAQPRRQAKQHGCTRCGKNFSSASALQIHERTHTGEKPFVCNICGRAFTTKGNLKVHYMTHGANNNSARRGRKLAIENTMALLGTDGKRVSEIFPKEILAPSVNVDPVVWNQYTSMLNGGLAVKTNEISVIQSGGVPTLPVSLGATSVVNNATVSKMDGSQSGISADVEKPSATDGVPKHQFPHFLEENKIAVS
# T2 sequence (Q96SW2 whole entry): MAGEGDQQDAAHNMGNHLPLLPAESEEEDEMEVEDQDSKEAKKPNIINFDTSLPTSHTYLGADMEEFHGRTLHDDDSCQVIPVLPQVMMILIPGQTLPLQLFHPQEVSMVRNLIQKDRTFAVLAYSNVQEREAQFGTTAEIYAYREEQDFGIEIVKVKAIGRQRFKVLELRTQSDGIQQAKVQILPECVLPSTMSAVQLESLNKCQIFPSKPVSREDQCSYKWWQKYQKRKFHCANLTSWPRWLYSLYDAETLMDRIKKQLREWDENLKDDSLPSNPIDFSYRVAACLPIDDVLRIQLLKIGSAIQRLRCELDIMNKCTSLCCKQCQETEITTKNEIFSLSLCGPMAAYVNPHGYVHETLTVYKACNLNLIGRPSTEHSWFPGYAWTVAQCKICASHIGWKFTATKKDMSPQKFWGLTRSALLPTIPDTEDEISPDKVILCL
# T2 sequence (Q16531 whole entry partner): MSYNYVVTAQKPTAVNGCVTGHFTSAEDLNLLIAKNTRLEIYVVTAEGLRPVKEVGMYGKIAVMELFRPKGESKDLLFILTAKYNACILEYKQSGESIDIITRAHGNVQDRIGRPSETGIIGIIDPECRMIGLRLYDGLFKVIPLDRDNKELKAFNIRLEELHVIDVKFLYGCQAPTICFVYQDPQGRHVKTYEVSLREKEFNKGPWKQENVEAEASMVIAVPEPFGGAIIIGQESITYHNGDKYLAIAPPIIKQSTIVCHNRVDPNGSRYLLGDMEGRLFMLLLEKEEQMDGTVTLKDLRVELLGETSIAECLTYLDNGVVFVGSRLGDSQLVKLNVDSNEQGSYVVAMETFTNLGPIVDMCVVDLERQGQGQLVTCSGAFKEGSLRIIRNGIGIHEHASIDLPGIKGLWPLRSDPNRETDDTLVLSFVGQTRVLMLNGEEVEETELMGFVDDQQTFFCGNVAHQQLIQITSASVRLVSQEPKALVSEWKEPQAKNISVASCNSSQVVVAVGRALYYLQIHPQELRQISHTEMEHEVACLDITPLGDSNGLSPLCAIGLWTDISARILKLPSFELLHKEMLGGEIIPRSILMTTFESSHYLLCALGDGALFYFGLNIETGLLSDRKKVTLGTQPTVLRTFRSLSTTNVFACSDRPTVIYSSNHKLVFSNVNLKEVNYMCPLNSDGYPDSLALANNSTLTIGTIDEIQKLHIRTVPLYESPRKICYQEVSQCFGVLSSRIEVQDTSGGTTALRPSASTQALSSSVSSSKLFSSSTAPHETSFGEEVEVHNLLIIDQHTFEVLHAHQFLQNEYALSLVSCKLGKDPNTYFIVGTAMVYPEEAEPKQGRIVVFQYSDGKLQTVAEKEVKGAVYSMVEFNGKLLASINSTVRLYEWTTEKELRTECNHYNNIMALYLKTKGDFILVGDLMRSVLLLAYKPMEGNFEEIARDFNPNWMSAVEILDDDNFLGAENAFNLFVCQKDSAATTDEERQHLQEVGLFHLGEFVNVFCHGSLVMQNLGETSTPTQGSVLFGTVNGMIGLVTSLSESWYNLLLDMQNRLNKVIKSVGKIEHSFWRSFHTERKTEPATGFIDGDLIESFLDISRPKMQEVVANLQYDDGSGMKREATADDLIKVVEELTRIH
# T1 sequence (Q96SW2 whole entry partner): as the sequence (Q96SW2 whole entry) above
# T1 sequence (Q16531 whole entry partner): as the sequence (Q16531 whole entry partner) above
# T1 sequence (Q9UJQ4 whole entry): as the sequence (Q9UJQ4 whole entry) above
smiles,measurement,setting,value
"O=C1CCC(N2C(=O)c3ccccc3C2=O)C(=O)N1 (centres unmarked) [Thalidomide, thalidomide]",effect on marker gene expression during LPM differentiation (words),[1],did not affect expression of the other measured markers
same,effect on marker gene expression during LPM differentiation (words),[1]; listed as thalidomide,significantly reduced the expression of both FOXF1 and SOX17
same,reduction of FOXF1 expression,[1]; hPSC Scorecard panel,~ 60%
same,reduction of SOX17 expression,[1]; hPSC Scorecard panel,> 95%
same,SALL4 degradation in human cells expressing CRBN with the V388I mutation,[2],failed to induce SALL4 degradation
same,IC50,[3],1.8 ± 2.6 µM
same,IC50,[4],> 50 µM
same,IC50,[5],> 50 µM
same,IC50,[6],1.9 ± 2.3 µM
same,effect on SALL4 MFI,[7],potently reduced SALL4 MFI
same,concentration for nonspecific toxicity in the mEST,[8],above 400 µM
